Measured values published in US20070254055A1, “Therapeutic Avenanthramide Compounds” (TRUSTEES OF TUFTS COLLEGE, priority 2003, published 2007).

Test system: COX-2
Test: TNF-α induced COX-2 expression in HT29 cells, Western blot
Assay type: cell-based, human
Details: 25 μM
Protocol: Western Blot Assay: HT-29 cells were seeded into 60 mm culture dishes and cultured to 70% confluence. Medium was changed from 10% to 1% FBS medium to minimize the effects of other growth-promoting substances normally contained in serum. For COX-2 expression studies, the cells were pre-treated with different concentrations of Avns oat extract and CH3-Avn-C for 1 hr followed by stimulation with 40 ng/ml of TNF-α for 23 hr. The medium was collected and kept at −80° C. for further analyzing prostaglandin E2 (PGE2) production. For analyzing the NFkB phosphorylation, the cells were pre-treated with different concentrations of Avns oat extract and CH3-Avn-C for 23 hr followed by stimulation with 40 ng/ml of TNF-α for 20 min. For determining the COX1 expression level, the cells were treated with different concentrations of Avns oat extract and CH3-Avn-C for 24 hr. To get the whole cell lysate for western, cells were harvested in 2× protein sample buffer by scraping the cells. […] Proteins bound to the primary antibodies were detected by the enhanced chemiluminescence (ECL) detection system and quantified by densitometric scanning.
Effect of Avns on COX-2 expression: HT29 cells express a low basal level of COX-2 protein. […] The expression of COX2 was measured by Western blotting. β-Actin expression level was used as a loading control. […]

## CS(=O)(=O)Nc1ccc([N+](=O)[O-])cc1OC1CCCCC1 [NS398]
  inhibition of COX2 expression: 50%
